Experiment: Concentrations of B vitamins obtainable in solution using polysorbate 40 as a solvent
Assay type: physicochemical
Conditions: polysorbate 40 as a solvent in an amount of at least 1.8 wt. %; water
Source text: One of the major disadvantages and drawbacks of the aforementioned prior art references is the absence of both pyridoxine, thiamine, cyanocobalamin in sufficiently high concentrations to ensure the supply of these vitamins to cover the necessary needs of the body.

- concentration obtainable in the solution: at least 0.1 wt. %
Substance: cyanocobalamin
